Experimental data published in paper PMC4917279 (Journal of Medicinal Chemistry, 2016).

Tests used:
[1] = Metabolic stability in rat hepatocytes; type: in vitro ADME; details: read-out: CL (CLblood) (converted)
Procedure: Liver cells were distributed in Williams’ medium E containing 5% fetal calf serum (FCS) to glass vials at a density of 1.0 × 10^6 vital cells/mL. The test compound was added to a final concentration of 1 μM. During incubation, the hepatocyte suspensions were continuously shaken and aliquots were taken at 2, 8, 16, 30, 45, and 90 min, to which an equal volume of cold MeOH was immediately added. Samples were frozen at −20 °C overnight, then centrifuged (15 min, 3000 rpm), and the supernatant was analyzed with an Agilent 1200 HPLC system with LC-MS/MS detection. The half-life of a test compound was determined from the concentration–time plot. The intrinsic clearances were calculated from the half-life, together with additional parameters (liver blood flow, quantity of liver cells in vivo and in vitro).

[2] = target: T1, ABL1(Y253F)-phosphorylated (Homo sapiens, UniProt P00519, Y253F); test: KINOMEscan; type: binding; details: read-out: %Ctrl @ 1000 nM
T1 construct: purchased DiscoveRx

[3] = target: T2, AMPK-alpha2 (Homo sapiens, UniProt P54646); test: KINOMEscan; type: binding; details: read-out: %Ctrl @ 1000 nM
T2 construct: purchased DiscoveRx KINOMEscan

[4] = target: T3, AXL (Homo sapiens, UniProt P30530); test: KINOMEscan; type: binding; details: read-out: %Ctrl @ 1000 nM
T3 construct: purchased DiscoveRx KINOMEscan

[5] = target: T4, BMPR1A (Homo sapiens, UniProt P36894); test: KINOMEscan; type: binding; details: read-out: %Ctrl @ 1000 nM
T4 construct: purchased DiscoveRx KINOMEscan

[6] = target: T5, BRSK2 (Homo sapiens, UniProt Q8IWQ3); test: KINOMEscan; type: binding; details: read-out: %Ctrl @ 1000 nM
T5 construct: purchased DiscoveRx KINOMEscan

[7] = target: T6, CAMK1G (Homo sapiens, UniProt Q96NX5); test: KINOMEscan; type: binding; details: read-out: %Ctrl @ 1000 nM
T6 construct: purchased DiscoveRx KINOMEscan

[8] = target: T7, CAMK4 (Homo sapiens, UniProt Q16566); test: KINOMEscan; type: binding; details: read-out: %Ctrl @ 1000 nM
T7 construct: purchased DiscoveRx KINOMEscan
T7 sequence (Q16566 whole entry): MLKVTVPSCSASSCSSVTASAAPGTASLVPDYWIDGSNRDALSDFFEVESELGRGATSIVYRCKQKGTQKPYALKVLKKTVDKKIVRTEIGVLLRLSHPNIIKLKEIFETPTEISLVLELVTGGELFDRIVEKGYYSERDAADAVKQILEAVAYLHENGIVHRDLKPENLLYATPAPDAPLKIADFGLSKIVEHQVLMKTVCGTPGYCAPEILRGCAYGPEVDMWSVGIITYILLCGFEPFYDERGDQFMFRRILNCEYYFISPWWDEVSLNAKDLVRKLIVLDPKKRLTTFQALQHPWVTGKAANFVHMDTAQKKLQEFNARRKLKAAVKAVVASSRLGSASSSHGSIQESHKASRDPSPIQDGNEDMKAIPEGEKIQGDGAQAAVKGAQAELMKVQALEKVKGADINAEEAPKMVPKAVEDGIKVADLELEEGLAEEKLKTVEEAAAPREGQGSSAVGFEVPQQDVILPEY

[9] = target: T8, CDK11 (Homo sapiens, UniProt Q9BWU1); test: KINOMEscan; type: binding; details: read-out: %Ctrl @ 1000 nM
T8 construct: purchased DiscoveRx KINOMEscan

[10] = target: T9, CDKL2 (Homo sapiens, UniProt Q92772); test: KINOMEscan; type: binding; details: read-out: %Ctrl @ 1000 nM
T9 construct: purchased DiscoveRx KINOMEscan

[11] = target: T10, CHEK1 (Homo sapiens, UniProt O14757); test: KINOMEscan; type: binding; details: read-out: %Ctrl @ 1000 nM
T10 construct: purchased DiscoveRx KINOMEscan

[12] = target: T11, DAPK3 (Homo sapiens, UniProt O43293); test: KINOMEscan; type: binding; details: read-out: %Ctrl @ 1000 nM
T11 construct: purchased DiscoveRx KINOMEscan

[13] = target: T12, DCAMKL1 (Homo sapiens, UniProt O15075); test: KINOMEscan; type: binding; details: read-out: %Ctrl @ 1000 nM
T12 construct: purchased DiscoveRx KINOMEscan

[14] = target: T13, DRAK1 (Homo sapiens, UniProt Q9UEE5); test: KINOMEscan; type: binding; details: read-out: %Ctrl @ 1000 nM
T13 construct: purchased DiscoveRx KINOMEscan
T13 sequence (Q9UEE5 whole entry): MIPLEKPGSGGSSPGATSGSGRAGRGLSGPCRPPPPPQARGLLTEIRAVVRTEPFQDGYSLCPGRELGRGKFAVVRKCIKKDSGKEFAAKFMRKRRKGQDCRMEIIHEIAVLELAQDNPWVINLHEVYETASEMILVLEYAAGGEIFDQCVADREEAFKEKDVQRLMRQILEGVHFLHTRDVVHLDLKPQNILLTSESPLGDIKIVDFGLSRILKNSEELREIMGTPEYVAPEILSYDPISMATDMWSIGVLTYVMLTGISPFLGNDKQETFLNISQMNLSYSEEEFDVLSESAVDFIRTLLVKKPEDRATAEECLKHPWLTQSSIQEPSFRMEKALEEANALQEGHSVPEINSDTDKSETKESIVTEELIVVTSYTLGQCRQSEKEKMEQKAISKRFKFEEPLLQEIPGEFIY

[15] = target: T14, DYRK1B (Homo sapiens, UniProt Q9Y463); test: KINOMEscan; type: binding; details: read-out: %Ctrl @ 1000 nM
T14 construct: purchased DiscoveRx KINOMEscan

[16] = target: T15, EGFR (Homo sapiens, UniProt P00533); test: KINOMEscan; type: binding; details: read-out: %Ctrl @ 1000 nM
T15 construct: purchased DiscoveRx KINOMEscan

[17] = target: T16, EGFR(L861Q) (Homo sapiens, UniProt P00533, L861Q); test: KINOMEscan; type: binding; details: read-out: %Ctrl @ 1000 nM
T16 construct: purchased DiscoveRx KINOMEscan
T16 sequence (P00533 25-1210 L861Q): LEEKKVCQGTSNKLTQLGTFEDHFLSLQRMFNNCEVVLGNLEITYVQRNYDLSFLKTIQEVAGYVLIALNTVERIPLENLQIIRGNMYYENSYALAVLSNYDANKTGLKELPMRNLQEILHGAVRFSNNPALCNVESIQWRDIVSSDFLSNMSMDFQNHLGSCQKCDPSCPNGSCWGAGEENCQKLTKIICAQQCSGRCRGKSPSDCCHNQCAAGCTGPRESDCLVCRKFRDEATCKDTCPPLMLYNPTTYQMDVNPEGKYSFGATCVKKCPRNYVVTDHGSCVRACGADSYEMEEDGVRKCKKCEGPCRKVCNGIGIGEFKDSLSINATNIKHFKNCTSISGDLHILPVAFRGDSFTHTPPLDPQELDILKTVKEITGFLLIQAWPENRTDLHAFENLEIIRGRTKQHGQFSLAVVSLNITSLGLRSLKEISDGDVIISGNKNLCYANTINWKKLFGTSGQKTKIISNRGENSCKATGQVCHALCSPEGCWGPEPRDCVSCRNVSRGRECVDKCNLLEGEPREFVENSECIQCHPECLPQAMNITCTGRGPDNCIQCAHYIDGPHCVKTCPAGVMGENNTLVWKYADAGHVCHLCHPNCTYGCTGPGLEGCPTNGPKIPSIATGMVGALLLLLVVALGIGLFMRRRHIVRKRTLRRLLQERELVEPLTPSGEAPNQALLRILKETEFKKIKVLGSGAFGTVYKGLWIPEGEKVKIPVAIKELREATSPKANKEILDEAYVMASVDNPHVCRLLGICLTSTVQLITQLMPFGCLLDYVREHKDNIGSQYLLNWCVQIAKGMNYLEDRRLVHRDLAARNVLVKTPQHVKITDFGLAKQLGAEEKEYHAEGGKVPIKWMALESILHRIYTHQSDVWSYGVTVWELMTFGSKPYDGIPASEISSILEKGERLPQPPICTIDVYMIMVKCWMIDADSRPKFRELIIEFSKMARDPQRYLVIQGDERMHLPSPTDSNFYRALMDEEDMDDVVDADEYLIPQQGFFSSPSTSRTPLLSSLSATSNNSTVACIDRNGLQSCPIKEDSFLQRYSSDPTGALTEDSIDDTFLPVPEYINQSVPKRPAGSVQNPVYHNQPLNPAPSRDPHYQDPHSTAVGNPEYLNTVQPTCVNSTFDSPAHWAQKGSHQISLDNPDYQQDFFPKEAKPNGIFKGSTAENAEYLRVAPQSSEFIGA

[18] = target: T17, EPHA2 (Homo sapiens, UniProt P29317); test: KINOMEscan; type: binding; details: read-out: %Ctrl @ 1000 nM
T17 construct: purchased DiscoveRx KINOMEscan

[19] = target: T18, EPHB3 (Homo sapiens, UniProt P54753); test: KINOMEscan; type: binding; details: read-out: %Ctrl @ 1000 nM
T18 construct: purchased DiscoveRx KINOMEscan

[20] = target: T19, ERK1 (Homo sapiens, UniProt P27361); test: KINOMEscan; type: binding; details: read-out: %Ctrl @ 1000 nM
T19 construct: purchased DiscoveRx KINOMEscan

[21] = target: T20, ERK3 (Homo sapiens, UniProt Q16659); test: KINOMEscan; type: binding; details: read-out: %Ctrl @ 1000 nM
T20 construct: purchased DiscoveRx KINOMEscan

[22] = target: T21, HIPK2 (Homo sapiens, UniProt Q9H2X6); test: KINOMEscan; type: binding; details: read-out: %Ctrl @ 1000 nM
T21 construct: purchased DiscoveRx KINOMEscan

[23] = target: T22, JNK2 (Homo sapiens, UniProt P45984); test: KINOMEscan; type: binding; details: read-out: %Ctrl @ 1000 nM
T22 construct: purchased DiscoveRx KINOMEscan

[24] = target: T23, LIMK2 (Homo sapiens, UniProt P53671); test: KINOMEscan; type: binding; details: read-out: %Ctrl @ 1000 nM
T23 construct: purchased DiscoveRx KINOMEscan

[25] = target: T24, MET(M1250T) (Homo sapiens, UniProt P08581, M1250T); test: KINOMEscan; type: binding; details: read-out: %Ctrl @ 1000 nM
T24 construct: purchased DiscoveRx KINOMEscan

[26] = target: T25, MINK (Homo sapiens, UniProt Q8N4C8); test: KINOMEscan; type: binding; details: read-out: %Ctrl @ 1000 nM
T25 construct: purchased DiscoveRx KINOMEscan

[27] = target: T26, MKK7 (Homo sapiens, UniProt O14733); test: KINOMEscan; type: binding; details: read-out: %Ctrl @ 1000 nM
T26 construct: purchased DiscoveRx KINOMEscan

[28] = target: T27, NEK3 (Homo sapiens, UniProt P51956); test: KINOMEscan; type: binding; details: read-out: %Ctrl @ 1000 nM
T27 construct: purchased DiscoveRx KINOMEscan

[29] = target: T28, PAK1 (Homo sapiens, UniProt Q13153); test: KINOMEscan; type: binding; details: read-out: %Ctrl @ 1000 nM
T28 construct: purchased DiscoveRx KINOMEscan
T28 sequence (Q13153 whole entry): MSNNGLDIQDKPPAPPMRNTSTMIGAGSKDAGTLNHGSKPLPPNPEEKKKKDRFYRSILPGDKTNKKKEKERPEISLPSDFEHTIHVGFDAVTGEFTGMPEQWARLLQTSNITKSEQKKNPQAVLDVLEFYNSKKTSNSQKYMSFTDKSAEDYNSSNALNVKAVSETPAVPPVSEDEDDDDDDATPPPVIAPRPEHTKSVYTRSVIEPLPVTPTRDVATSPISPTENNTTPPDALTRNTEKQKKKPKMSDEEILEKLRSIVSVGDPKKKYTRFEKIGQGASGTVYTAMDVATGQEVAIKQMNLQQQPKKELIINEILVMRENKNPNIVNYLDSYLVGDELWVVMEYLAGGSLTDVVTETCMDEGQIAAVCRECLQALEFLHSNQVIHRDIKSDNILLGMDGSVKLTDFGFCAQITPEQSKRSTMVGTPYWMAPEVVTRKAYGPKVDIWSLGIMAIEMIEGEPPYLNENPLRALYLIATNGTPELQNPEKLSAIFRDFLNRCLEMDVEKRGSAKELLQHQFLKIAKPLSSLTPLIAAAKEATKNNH

[30] = target: T29, PCTK2 (Homo sapiens, UniProt Q00537); test: KINOMEscan; type: binding; details: read-out: %Ctrl @ 1000 nM
T29 construct: purchased DiscoveRx KINOMEscan

[31] = target: T30, PHKG2 (Homo sapiens, UniProt P15735); test: KINOMEscan; type: binding; details: read-out: %Ctrl @ 1000 nM
T30 construct: purchased DiscoveRx KINOMEscan

[32] = target: T31, PIK4CB (Homo sapiens, UniProt Q9UBF8); test: KINOMEscan; type: binding; details: read-out: %Ctrl @ 1000 nM
T31 construct: purchased DiscoveRx KINOMEscan

[33] = target: T32, PIP5K2C (Homo sapiens, UniProt Q8TBX8); test: KINOMEscan; type: binding; details: read-out: %Ctrl @ 1000 nM
T32 construct: purchased DiscoveRx KINOMEscan

[34] = target: T33, PKAC-beta (Homo sapiens, UniProt P22694); test: KINOMEscan; type: binding; details: read-out: %Ctrl @ 1000 nM
T33 construct: purchased DiscoveRx KINOMEscan

[35] = target: T34, PRKG2 (Homo sapiens, UniProt Q13237); test: KINOMEscan; type: binding; details: read-out: %Ctrl @ 1000 nM
T34 construct: purchased DiscoveRx KINOMEscan

[36] = target: T35, SIK (Homo sapiens, UniProt P57059); test: KINOMEscan; type: binding; details: read-out: %Ctrl @ 1000 nM
T35 construct: purchased DiscoveRx KINOMEscan
T35 sequence (P57059 whole entry): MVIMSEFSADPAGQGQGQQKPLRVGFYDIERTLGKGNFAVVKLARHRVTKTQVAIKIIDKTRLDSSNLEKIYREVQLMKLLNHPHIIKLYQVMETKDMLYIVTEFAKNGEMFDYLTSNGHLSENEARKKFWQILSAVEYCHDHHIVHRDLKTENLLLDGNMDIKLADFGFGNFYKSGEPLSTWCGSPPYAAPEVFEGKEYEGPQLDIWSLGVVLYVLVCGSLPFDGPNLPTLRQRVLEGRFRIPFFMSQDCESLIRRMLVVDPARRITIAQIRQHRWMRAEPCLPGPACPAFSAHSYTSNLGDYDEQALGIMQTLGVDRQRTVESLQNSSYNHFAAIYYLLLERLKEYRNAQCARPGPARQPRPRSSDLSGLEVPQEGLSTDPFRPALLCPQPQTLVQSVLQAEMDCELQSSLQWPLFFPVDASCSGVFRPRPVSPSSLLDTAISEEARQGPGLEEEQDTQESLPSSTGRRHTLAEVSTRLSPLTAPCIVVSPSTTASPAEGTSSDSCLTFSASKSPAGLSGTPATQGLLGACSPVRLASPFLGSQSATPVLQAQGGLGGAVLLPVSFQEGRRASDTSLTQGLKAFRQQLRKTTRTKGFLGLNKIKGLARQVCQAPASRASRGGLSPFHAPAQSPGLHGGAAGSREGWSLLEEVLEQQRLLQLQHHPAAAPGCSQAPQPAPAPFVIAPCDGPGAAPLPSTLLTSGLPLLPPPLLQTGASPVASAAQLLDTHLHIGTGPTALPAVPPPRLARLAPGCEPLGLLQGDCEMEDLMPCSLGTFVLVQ

[37] = target: T36, SYK (Homo sapiens, UniProt P43405); test: KINOMEscan; type: binding; details: read-out: %Ctrl @ 1000 nM
T36 construct: purchased DiscoveRx KINOMEscan

[38] = target: T37, TEC (Homo sapiens, UniProt P42680); test: KINOMEscan; type: binding; details: read-out: %Ctrl @ 1000 nM
T37 construct: purchased DiscoveRx KINOMEscan

[39] = target: T38, TNK1 (Homo sapiens, UniProt Q13470); test: KINOMEscan; type: binding; details: read-out: %Ctrl @ 1000 nM
T38 construct: purchased DiscoveRx KINOMEscan
T38 sequence (Q13470 whole entry): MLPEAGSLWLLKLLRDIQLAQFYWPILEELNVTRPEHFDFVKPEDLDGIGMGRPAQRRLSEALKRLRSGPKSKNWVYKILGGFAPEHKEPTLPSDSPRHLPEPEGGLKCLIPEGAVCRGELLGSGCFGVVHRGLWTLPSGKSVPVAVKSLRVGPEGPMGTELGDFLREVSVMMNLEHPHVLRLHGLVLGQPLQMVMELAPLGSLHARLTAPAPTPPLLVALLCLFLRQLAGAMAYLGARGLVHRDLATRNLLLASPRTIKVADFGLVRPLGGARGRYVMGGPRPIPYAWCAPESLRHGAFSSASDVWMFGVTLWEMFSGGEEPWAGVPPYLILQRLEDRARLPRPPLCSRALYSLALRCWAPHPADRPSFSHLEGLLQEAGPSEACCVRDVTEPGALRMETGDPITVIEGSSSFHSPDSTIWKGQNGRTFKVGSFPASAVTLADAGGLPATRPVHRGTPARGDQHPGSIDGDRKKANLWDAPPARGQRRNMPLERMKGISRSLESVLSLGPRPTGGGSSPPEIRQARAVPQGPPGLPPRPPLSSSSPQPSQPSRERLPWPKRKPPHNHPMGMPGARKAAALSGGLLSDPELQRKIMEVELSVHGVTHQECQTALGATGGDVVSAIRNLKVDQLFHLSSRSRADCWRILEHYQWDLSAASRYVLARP

[40] = target: T39, TRKB (Homo sapiens, UniProt Q16620); test: KINOMEscan; type: binding; details: read-out: %Ctrl @ 1000 nM
T39 construct: purchased DiscoveRx KINOMEscan
T39 sequence (Q16620 32-822): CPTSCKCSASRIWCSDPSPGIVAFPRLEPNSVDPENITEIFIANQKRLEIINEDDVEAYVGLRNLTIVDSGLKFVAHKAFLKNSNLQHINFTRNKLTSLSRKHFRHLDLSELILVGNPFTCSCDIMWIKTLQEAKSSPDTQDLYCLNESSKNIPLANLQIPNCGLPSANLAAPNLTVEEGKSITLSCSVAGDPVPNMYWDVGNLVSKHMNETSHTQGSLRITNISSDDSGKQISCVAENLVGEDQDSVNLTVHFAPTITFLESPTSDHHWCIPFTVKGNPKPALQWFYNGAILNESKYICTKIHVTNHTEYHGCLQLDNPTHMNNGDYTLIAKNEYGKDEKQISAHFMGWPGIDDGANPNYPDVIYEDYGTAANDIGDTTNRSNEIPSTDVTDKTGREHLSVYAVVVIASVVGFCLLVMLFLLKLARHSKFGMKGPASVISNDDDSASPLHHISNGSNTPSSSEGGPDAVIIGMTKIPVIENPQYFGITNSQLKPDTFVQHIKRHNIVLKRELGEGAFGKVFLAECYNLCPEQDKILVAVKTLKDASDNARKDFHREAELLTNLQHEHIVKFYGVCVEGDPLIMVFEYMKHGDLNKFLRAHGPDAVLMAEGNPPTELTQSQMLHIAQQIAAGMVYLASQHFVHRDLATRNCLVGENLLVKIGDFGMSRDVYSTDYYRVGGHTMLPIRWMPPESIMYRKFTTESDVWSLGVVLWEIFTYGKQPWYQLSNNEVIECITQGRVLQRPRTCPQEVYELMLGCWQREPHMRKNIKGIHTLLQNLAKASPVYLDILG

`CCN(C(=O)CO)[C@H]1CN(/C(=N\C#N)Nc2cccc(OC(F)F)c2)N=C1c1ccc(Cl)c(Cl)c1` [(S)-4] gave a CLhep predicted at […], 1 µM [1] of 2.5 L/h/kg, a remaining binding at 1 µM [2] of 100% and a remaining binding at 1 µM [3] of 85%. For the same compound, the remaining binding at 1 µM [4] was 91%, the remaining binding at 1 µM [5] was 100% and the remaining binding at 1 µM [6] was 74%. It also gave a remaining binding at 1 µM [7] of 98%, a remaining binding at 1 µM [8] of 82% and a remaining binding at 1 µM [9] of 85%. The remaining binding at 1 µM [10] was 100%, the remaining binding at 1 µM [11] was 98% and the remaining binding at 1 µM [12] was 94%. For the same compound, the remaining binding at 1 µM [13] was 67%, the remaining binding at 1 µM [14] was 100% and the remaining binding at 1 µM [15] was 74%. It also gave a remaining binding at 1 µM [16] of 99%, a remaining binding at 1 µM [17] of 85% and a remaining binding at 1 µM [18] of 84%. For the same compound, the remaining binding at 1 µM [19] was 99%, the remaining binding at 1 µM [20] was 100% and the remaining binding at 1 µM [21] was 77%. It also gave a remaining binding at 1 µM [22] of 100%, a remaining binding at 1 µM [23] of 100% and a remaining binding at 1 µM [24] of 62%. It also gave a remaining binding at 1 µM [25] of 86%, a remaining binding at 1 µM [26] of 100% and a remaining binding at 1 µM [27] of 99%. The remaining binding at 1 µM [28] was 95%, the remaining binding at 1 µM [29] was 84% and the remaining binding at 1 µM [30] was 91%. It also gave a remaining binding at 1 µM [31] of 99%, a remaining binding at 1 µM [32] of 100% and a remaining binding at 1 µM [33] of 85%. It also gave a remaining binding at 1 µM [34] of 100%, a remaining binding at 1 µM [35] of 84% and a remaining binding at 1 µM [36] of 98%. It also gave a remaining binding at 1 µM [37] of 59%, a remaining binding at 1 µM [38] of 99% and a remaining binding at 1 µM [39] of 66%. For the same compound, the remaining binding at 1 µM [40] was 100%.
